This passage reports Km and Ki results from publication PMC8700221, “Long-Term Treatment with Atypical Antipsychotic Iloperidone Modulates Cytochrome P450 2D (CYP2D) Expression and Activity in the Liver and Brain via Different Mechanisms” (Cells, 2021).

Holding throughout (type): biochemical
The subject of assay [1] is T1, CYP2D (rat liver microsomes).
T1 construct: gene Cyp2d1; native enzymes in pooled liver microsomes of control male rats (n = 10); CYP2D1 and CYP2D2 named most abundant in liver
The assay is described as follows: bufuralol […]'-hydroxylation in liver microsomes, HPLC with fluorometric detection. As to conditions: NADPH-generating system; 0.5 mg protein/mL; no inhibitor; CYP2D isoenzymes mixed. A general note: Liver microsomes are a subcellular fraction often used to study metabolism.

The subject of assay [2] is T2, CYP2D (rat brain microsomes).
T2 construct: gene Cyp2d4; native enzymes in pooled whole-brain microsomes of control male rats (n = 10); CYP2D4 named main brain form
The assay is described as follows: bufuralol […]'-hydroxylation in whole-brain microsomes, HPLC with fluorometric detection. As to conditions: NADPH-generating system; 2 mg protein/mL; no inhibitor; CYP2D isoenzymes mixed.

Assay [3] concerns the target T2, CYP2D (rat brain microsomes). The assay is described as follows: bufuralol […]'-hydroxylation in whole-brain microsomes, HPLC with fluorometric detection, Dixon plot. Conditions: competitive; bufuralol 50, 100 and 200 µM; iloperidone 25-500 µM; 2 mg protein/mL; NADPH-generating system; CYP2D isoenzymes mixed.
Assay [4] deals with T1, CYP2D (rat liver microsomes). The assay is described as follows: bufuralol […]'-hydroxylation in liver microsomes, HPLC with fluorometric detection, Dixon plot. As to conditions: competitive; bufuralol 5, 10 and 20 µM; iloperidone 1-250 µM; 0.5 mg protein/mL; NADPH-generating system; CYP2D isoenzymes mixed.

By Km is commonly meant the substrate concentration at which the rate is half of its maximum. For the molecule `CCc1cccc2cc(C(O)CNC(C)(C)C)oc12` (stereo not shown) [bufuralol], the Km in assay [1] was 8.26 µM; in assay [2], 492 µM.
A word on the Ki: it is a measure of affinity in units of concentration, obtained from inhibition or displacement. Read a high Ki as weaker binding. Regarding `COc1cc(C(C)=O)ccc1OCCCN1CCC(c2noc3cc(F)ccc23)CC1` [iloperidone], the Ki in assay [3] stood at 462 µM; in assay [4] it was 11.5 µM.
